Earlier results, collected in patent US20060246133A1, “Controlled release pharmaceutical compositions of liothyronine and methods of making and using the same” (priority 2005, published 2006).

Conditions: when administered in an immediate release form

Compound: N[C@@H](Cc1cc(I)c(Oc2ccc(O)c(I)c2)c(I)c1)C(=O)O [liothyronine]
- half-life: about 10 hours
